Read-outs that look alike come from different tables or passages of the source.
Columns and labels:
SKBR3 (ER-/Her2+) [1] = test: Annexin V-FITC/PI apoptosis flow cytometry, SKBR3; assay type: cell-based
Procedure: (§1) Induction of apoptosis was studied in a MCF7 breast cancer cell line. Apoptotic cells were detected using an Annexin V-FITC/PI apoptosis detection kit (Oncagene, Boston, Mass.). After plating at 5×10^5 in a 100-mm plate, the cells were grown for 48 hours in complete medium in presence of M1, ritonavir, or vehicle (DMSO). The culture and drug exposure conditions for the apoptosis assays were done across a range of 5 to 60 μmol/L M1 and ritonavir. Cells were harvested by trypsin treatment, washed with complete medium to neutralize the trypsin, and stained with PI and Annexin V-FITC. A total of 1×10^4 events were analyzed per assay by FACScan analysis using CellQuest software (Becton Dickinson). Replicate assays were done to confirm the results.
A similar study was performed using T47D (ER+), MDA-MB-231 (triple negative) and SKBR3 (ER−/Her2+) cell lines were performed as above.

[2] = Tolerability in nude mice (MTD, weight); assay type: in vivo; conditions: for MTD: female, nude (nu-/nu-), mouse, in vivo
Procedure: Six-8 weeks old female nude mice (nu^−/nu^−) (Charles River Laboratories International, Inc., MA) were injected into a right mammary fat pad with 1×10^6 log-phase MDA-MB-231. Mice were monitored bi-weekly for weight and tumor growth. When tumors reached a volume of approximately 30-40 mm^3 (calculated according to the formula: volume (mm^3)=(length)(width)^2/2), mice were randomized into three groups (each group n=10). One group of mice was injected daily i.p. with ritonavir (20 mg/Kg in 100 μl of ethanol-Tween 80), the second with M1 (20 mg/Kg in 100 μl of ethanol-Tween 80), and the third with vehicle only (100 μl of ethanol-Tween 80). […] Mice were weighted and their tumors were measured twice a week for the entire duration of the treatment (42 days).

T47D cell line = test: Induction of reactive oxygen species, flow cytometry; assay type: cell-based; conditions: 30 μM, 24 hours, FIG. 3
Procedure: Production of ROS can be analyzed using flow cytometry. For example, induction of ROS, including peroxide and superoxide, can be studied in cancer cell line. Cells can be seeded in 6 well plates (˜80,000 cells/well) using the appropriate medium, and exposed to a drug for 24 hours. Subsequently, the medium can be removed from the wells and the cells can then be exposed to DHE (2 μM in PBS) or Carboxy-H2-DCFDA (10 μM in PBS) for 30 minutes. Cells can then be trypsinized, washed two times with PBS and analyzed by flow cytometry. Additional cells can be exposed to H2O2 (250 μM) for 2 hours as a positive control for ROS production. See Example 3.
Induction of Reactive Oxygen Species (ROS), including peroxide and superoxide, were studied in the T47D cell line. Cells were seeded in 6 well plates (˜80,000 cells/well) using the appropriate medium, (DMEM with 10% FBS, 1% L-Glu, 1% Sodium Piruvate, and 1% Pen-strep) and exposed to ritonavir (30 μM) and M1 (30 μM) for 24 hours. Subsequently, the medium was removed from the wells and the cells were exposed to DHE (2 μM in PBS) or Carboxy-H2-DCFDA (10 μM in PBS) for 30 minutes. Cells were then trypsinized, washed two times with PBS and analyzed by flow cytometry. Additional cells were exposed to H2O2 (250 μM) for 2 hours as a positive control for ROS production.

SKBR3 = test: Western blot protein depletion, SKBR3 (Example 4); assay type: cell-based
Procedure: Breast cancer cell lines MDA-MB-231, T47D and SKBR3 were used to study depletion of Hsp90 by M1 and ritonavir. Cells were incubated for 48 hours with 1) ritonavir (R) at its IC50 (20 μM for T47D and 40 μM for MDA-MB-231); 2) M1 at ritonavir's IC50; or DMSO (control). Cell extracts were made according to the method of Srirangam et al., Clin Cancer Res. 2006 Mar. 15; 12(6):1883-96. Briefly, nearly confluent cell monolayers were treated with drug or vehicle (DMSO) for 24 or 48 h. Cells were washed with PBS on ice and scraped in a RIPA buffer containing protease inhibitors including MG-132 and phosphatase inhibitors. The cell lysate protein content was determined by μBCA and equal amounts of protein were loaded per lane. Gel electrophoresis by SDS PAGE was performed with equal protein loading per lane (usually 30 μg) and the separated proteins were transferred to 0.45 μm nitrocellulose filters. The transfer was verified by Ponceau stain of the nitrocellulose filters. The filters were probed by chemiluminescent blotting and then exposed to X-ray film. The signal from the protein of interest was normalized to the GAPDH signal. Student's t-test was used to determine the significance of differences.

[3] = test system: MCF7 breast cancer cell line; test: Annexin V-FITC/PI apoptosis flow cytometry, MCF7; assay type: cell-based; conditions: for early apoptotic cells: preliminary flow cytometry apoptosis studies; for UR % Late Apoptosis / LR % Early Apoptosis: 48 hours; for fraction of apoptotic cells (early, lower right quadrant): at the ritonavir IC50 (30 μM), FIG. 2
Procedure: Induction of apoptosis can be determined using the Annexin V-FITC/PI apoptosis detection kit (Oncagene, Boston, Mass.). For example, after plating at 5×10^5 in a 100-mm plate, cancer cells can be grown for 48 hours in complete medium in presence of a drug, including a compound or formula 1, and a control, such as vehicle (DMSO). The culture and drug exposure conditions for the apoptosis assays can be done across a range of 5 to 60 μmol/L drug. Cells can be harvested by trypsin treatment, washed with complete medium to neutralize the trypsin, and stained with PI and Annexin V-FITC. The events can then be analyzed using FACScan analysis and CellQuest software (Becton Dickinson). See Example 2.
as §1

Hsp90 = test: 70 kDa Hsp90 fragment after treatment; assay type: cell-based; conditions: data not shown
SKBR3 (ER-/Her2+) [4] = test: MTT proliferation assay, SKBR3; assay type: cell-based; conditions: Homo sapiens, SK-BR-3, Example 6, MTT after 48 h
Procedure: M1 inhibition of proliferation of MCF7 (ER+), T47D (ER+), MDA-MB-231 (triple negative), SKBR3 (ER−/Her2+), and the non-transformed mammary line MCF10A were studied. Cells (n=2000/well) were seeded in 96 well plates with drug or vehicle (DMSO) on D1 and after 48 h the cell number was determined by MTT assay.

[5] = test system: MDA-MB-231 (triple negative); test: MTT proliferation assay, MDA-MB-231; assay type: cell-based; conditions: Homo sapiens
Procedure: Cells (n=2000/well) were seeded in 96 well plates with drug or vehicle (DMSO) on D1 and after 48 h the cell number was determined by MTT assay.

MCF7-her2 line = test: MTT proliferation assay, MCF7-her2 line; assay type: cell-based; conditions: MCF7-her2 line over-expressing her2; MTT after 48 h
[6] = Table 1, below the IC50 for both drugs, 45 μM
[7] = Table 3, at the ritonavir IC50, 30 μM
[8] = Table 4, above the IC50 for both drugs, 45 μM

Row | Structure (SMILES) | fraction of apoptotic cells (SKBR3 (ER-/Her2+) [1]) | ROS production (T47D cell line) | G1/S regulatory protein Cyclin D1 (SKBR3) | reducing Hsp90 levels (SKBR3) | early apoptotic cells ([3]; 45 μM) | UR % Late Apoptosis ([3]; Table 1, 45 μM) | LR % Early Apoptosis [3, 6] | LR % Early Apoptosis ([3]; Table 2, at the M1 IC50, 15 μM) | UR % Late Apoptosis ([3]; Table 2, at the M1 IC50, 15 μM) | LR % Early Apoptosis [3, 7] | UR % Late Apoptosis [3, 7] | LR % Early Apoptosis [3, 8] | UR % Late Apoptosis [3, 8] | fraction of apoptotic cells (early, lower right quadrant) [3] | IC50 (SKBR3 (ER-/Her2+) [4]) | IC50 (MCF7-her2 line) | further results
1 | CC(C)c1nc(CN(C)C(=O)N[C@H](C(=O)N[C@@H](Cc2ccccc2)C[C@H](O)[C@H](Cc2ccccc2)NC(=O)OCc2cncs2)C(C)C)cs1 [ritonavir] | 11% | does not | only M1 reduced | neither drug reduced | 14% | 23.0% | 14.12% | 13.83% | 11.16% | 15.11% | 7.95% | 17.10% | 7.30% | 17% | 33 µM | 25 µM | Animal weight loss ([2]; 20 mg/Kg daily i.p., 42 days, FIG. 5C): did not occur; MTD ([2]; nude mice, read-out: maximum tolerated dose (MTD)): 40 mg/kg; 70 kDa Hsp90 fragment, less abundant than with M1 (Hsp90): 3 -fold; IC50 ([5]; as quoted in Example 4, read-out: IC50): 40 µM
2 | CC(C)c1nc(CN(C)C(=O)NC(C(=O)NC(Cc2ccccc2)CC(O)C(N)Cc2ccccc2)C(C)C)cs1 (stereo not shown) [M1, desthiazolyl ritonavir] | 78% | induces ROS production | reduced | neither drug reduced | 28% | 34.74% | 27.46% | 9.42% | 10.73% | 39.74% | 20.00% | 31.95% | 21.31% | 32% | 12 µM | 25 µM | MTD [2]: 20 mg/kg; reducing total Akt, phospho-Akt, GSK3beta, c-src, and survivin (SKBR3; versus ritonavir, P<0.05): more potent; major 70 kDa Hsp90 fragment (Hsp90): observed; IC50 ([5]; Example 6, MTT after 48 h, read-out: IC50, proliferation): 22 µM

Reference: US8501792B2, “Treating cancer with desthiazolyl ritonavir” (priority 2008, dated 2013)
